MHK data for six molecules are collected here from patent publication US6479056B1, “Live vaccine constituting minor risk for humans” (priority 1994, dated 2002).

The subject of the experiment is wild strains. Kind of experiment: MHK of antibiotics for wild strains. It counts as cell-based, Salmonella.

Take `[H]/N=C(/N)N[C@H]1[C@H](O)[C@@H](O)[C@H](O[C@@H]2O[C@@H](C)[C@](O)(C=O)[C@H]2O[C@@H]2O[C@@H](CO)[C@H](O)[C@@H](O)[C@@H]2NC)[C@@H](N/C(N)=N\[H])[C@@H]1O` [streptomycin]: the MHK entry was “(Jenapharm) wild strains MHK 6.2 ug/ml”.

Turning to `CC[C@H]1OC(=O)[C@H](C)[C@@H](O[C@H]2C[C@@](C)(OC)[C@@H](O)[C@H](C)O2)[C@H](C)[C@@H](O[C@@H]2O[C@H](C)C[C@H](N(C)C)[C@H]2O)[C@](C)(O)C[C@@H](C)C(=O)[C@H](C)[C@@H](O)[C@]1(C)O` [erythromycin], the MHK result is recorded as “(Abbott) wild strains MHK 60.0 ug/ml”. As for `O=C(O)c1cn(C2CC2)c2cc(N3CCNCC3)c(F)cc2c1=O` [ciprofloxacin], the entry is “(Bayer) wild strains MHK 0.05 ug/ml”; as for `CCn1cc(C(=O)O)c(=O)c2ccc(C)nc21` [nalidixic acid], “(CHINOIN, Budapest) wild strains MHK 6.2 ug/ml”; as for `C[C@H]1c2cccc(O)c2C(=O)C2=C(O)[C@]3(O)C(=O)C(C(N)=O)=C(O)[C@@H](N(C)C)[C@@H]3[C@@H](O)[C@@H]21` [doxycycline], “(Jenapharm) wild strains MHK 4.0 ug/ml”. The same measure for `O=C(N[C@H](CO)[C@H](O)c1ccc([N+](=O)[O-])cc1)C(Cl)Cl` [chloramphenicol]: “(Berlin-Chemie) 2.0 ug/ml”.
